The test system of data set [1] is Aspergillus niger. As to the kind of experiment: Antifungal activity against Aspergillus niger assessed as fungal growth inhibition incubated for 48 hrs by agar diffusion method. The class given is functional. Particulars: Aspergillus niger.
The subject of data set [2] is Mycobacterium tuberculosis. As to the kind of experiment: Antibacterial activity against Mycobacterium tuberculosis H37Rv ATCC 27294 assessed as bacterial growth inhibition by radiometry method. The class given is functional.
Data set [3] is described as follows: Anticancer activity against human 1321N1 cells assessed as cell growth inhibition by dynamic assay. The class given is functional, cell-based.
The test system of a further data set is Caco-2. Nature of the data set: Anticancer activity against human Caco-2 cells assessed as cell growth inhibition by cytometry. Format: functional, cell-based.
Another data set has as its system Bacillus cereus. Nature of the data set: Antibacterial activity against Bacillus cereus assessed as bacterial growth inhibition at 100 ug incubated for 48 hrs by disk diffusion method. Format: functional. The conditions noted are these: read-out: IZ. A general note: A growth-free zone around the sample is the usual read-out of agar diffusion tests.
For the next data set, the system named is Salmonella typhimurium. As to the kind of experiment: Antibacterial activity against Salmonella typhimurium Delta-119 assessed as bacterial growth inhibition incubated for 16 hrs by broth dilution method. Format: functional, Salmonella enterica subsp. enterica serovar Typhimurium. Particulars: Salmonella enterica. On the technique in general: Dilution methods test growth across graded concentrations, often in twofold steps.

The test system of data set [4] is Klebsiella pneumoniae. As to the kind of experiment: Antibacterial activity against Klebsiella pneumoniae Delta-217 assessed as bacterial growth inhibition incubated for 16 hrs by broth dilution method. The class given is functional.
Data set [5] is described as follows: Binding affinity to Candida glabrata beta-carbonic anhydrase assessed as inhibition constant preincubated for 15 mins by bromothymol blue staining based assay. Details: species or system Nakaseomyces glabratus.
The nature of data set [6]: Binding affinity to Cryptococcus neoformans beta-carbonic anhydrase assessed as inhibition constant preincubated for 15 mins by bromothymol blue staining based assay.
Data set [7] relates to Mycolicibacterium smegmatis. Nature of the data set: Antibacterial activity against Mycobacterium smegmatis ATCC 700084 assessed as bacterial growth inhibition incubated for 72 hrs by broth microdilution method. The class given is functional.
Data set [8] concerns Escherichia coli. Nature of the data set: Antibacterial activity against Escherichia coli ATCC 25922 assessed as bacterial growth inhibition incubated for 72 hrs by broth microdilution method. The class given is functional.
In data set [9] the test system is Streptococcus mutans. As to the kind of experiment: Antibacterial activity against Streptococcus mutans assessed as bacterial growth inhibition. The class given is functional.
Another data set deals with MDA-MB-231. Nature of the data set: Anticancer activity against human MDA-MB-231 cells assessed as cell growth inhibition incubated for 72 hrs by MTT assay. The class given is functional, cell-based. Particulars: MDA-MB-231, 72 h.
The subject of a further data set is MIA PaCa-2. As to the kind of experiment: Anticancer activity against human MIA PaCa-2 cells assessed as cell growth inhibition incubated for 72 hrs by MTT assay. The class given is functional, cell-based. Particulars: MIA PaCa-2, 72 h. In general terms: Formazan colour is commonly taken as a measure of viable cells.
Data set [10] in a line: Inhibition of Escherichia coli LeuRS using Escherichia coli tRNA as substrate incubated for 20 mins in presence of 14C-leucine/ATP.
In data set [11] the test system is Escherichia coli. Nature of the data set: Antibacterial activity against Escherichia coli ATCC 25922 assessed as bacterial growth inhibition. Format: functional.
A short description of data set [12]: Lipophilicity, log P of the compound. Format: physicochemical. Particulars: octanol/water.
The next data set relates to Candida albicans. Nature of the data set: Antifungal activity against Candida albicans ATCC 14053 assessed as fungal growth inhibition by broth microdilution method. Format: functional.
In another data set the test system is Vanrija humicola. Nature of the data set: Antifungal activity against Cryptococcus humicola ATCC 9949 assessed as fungal growth inhibition by broth microdilution method. The class given is functional.
Data set [13] concerns Aspergillus niger. Nature of the data set: Antifungal activity against Aspergillus niger ATCC 16404 assessed as fungal growth inhibition by broth microdilution method. Format: functional.
The test system of the next data set is Fusarium oxysporum. As to the kind of experiment: Antifungal activity against Fusarium oxysporum VKM F-140 assessed as fungal growth inhibition by broth microdilution method. The class given is functional.
The next data set deals with Pseudomonas aeruginosa. Nature of the data set: Antibacterial activity against Pseudomonas aeruginosa assessed as bacterial growth inhibition by broth microdilution method. Format: functional.
Data set [14] concerns Mycolicibacterium smegmatis. Nature of the data set: Antibacterial activity against Mycobacterium smegmatis assessed as bacterial growth inhibition. The class given is functional.
In the next data set the test system is A549. Nature of the data set: Cytotoxicity against human A549 cells assessed as cell growth inhibition. Format: functional.
The test system of data set [15] is Streptococcus mutans. Nature of the data set: Antibiofilm activity against Streptococcus mutans ATCC 27351 assessed as bacterial viability at 0.9 uM by SYTO/PI staining based inverted microscopy relative to control. Format: functional.
Data set [16] in a line: Cytotoxicity against HEK293T cells assessed as reduction in cell viability incubated for 48 hrs by MTT assay. The class given is toxicity, cell-based, HEK-293T. The conditions noted are these: human.
For data set [17], the system named is Aspergillus niger. As to the kind of experiment: Antifungal activity against Aspergillus niger ATCC 20408 assessed as fungal growth inhibition by plate colony counting method. Format: functional.
Data set [18] deals with Mycobacterium tuberculosis. As to the kind of experiment: Antibacterial activity against Mycobacterium tuberculosis H37Rv ATCC 25618 assessed as bacterial growth inhibition incubated for 5 days by fluorescence based assay. Format: functional, organism-based. Particulars: H37Rv ATCC 25618, 120 h.
The subject of a further data set is HepG2. Nature of the data set: Cytotoxicity against human HepG2 cells assessed as cell growth inhibition incubated for 72 hrs by Cell Titer Glo assay. Format: functional, cell-based. Particulars: HepG2, 72 h.
Data set [19] in a line: Protein binding in mouse plasma. Particulars: read-out: PB (converted). Format: ADME, cell-free.
A short description of data set [20]: Protein binding in human serum. Particulars: read-out: PB (converted). The class given is ADME, cell-free.
Data set [21] concerns Klebsiella pneumoniae. As to the kind of experiment: Antibacterial activity against Klebsiella pneumoniae assessed as bacterial growth inhibition. The class given is functional.
The test system of data set [22] is Escherichia coli. Nature of the data set: Antibacterial activity against Escherichia coli assessed as bacterial growth inhibition. Format: functional.
In data set [23] the test system is Streptococcus mutans. Nature of the data set: Antibiofilm activity against Streptococcus mutans ATCC 27351 assessed as bacterial viability at 0.2 uM by SYTO/PI staining based inverted microscopy relative to control. The class given is functional.
The subject of a further data set is L5178Y. Nature of the data set: Anticancer activity against mouse L5178Y cells assessed as cell growth inhibition incubated for 24 hrs by MTT assay. Format: functional, cell-based.

≈ marks a conversion by molar mass, not a printed value. Some results are limits rather than exact numbers.

In the case of `OB1OCc2cc(F)ccc21` [TAVABOROLE], the minimum inhibitory concentration (MIC) in the data set on Aspergillus niger [1] came out at 2 µg/mL (≈ 13.2 µM). On to `OB1c2ccccc2NC(=S)N1c1ccccc1`, for which the MIC in [2] is 8 µg/mL (≈ 31.5 µM).

As for `CC(C)C1=[N+](Cc2cccc(C(F)(F)F)c2)[B-](c2ccccc2)(c2ccccc2)OC1=O`, the concentration for half-maximal inhibition (IC50) in [3] stood at 268 µM; with Caco-2, 76 µM.

On to `CCNC(=S)N1N=Cc2c(F)cccc2B1O`, for which the zone of inhibition at 100 µg/disc in the data set on Bacillus cereus came out at 3.4 mm. With `CCCS(=O)(=O)N1N=Cc2sc(C)cc2B1O`, the MIC in the data set on Salmonella typhimurium amounted to 0.19 µg/mL (≈ 0.698 µM); with Klebsiella pneumoniae [4] it was 0.31 µg/mL (≈ 1.14 µM). With `O=C(Nc1ccc(F)cc1)Nc1ccc2c(c1)B(O)OC2`, the Ki in data set [5] was 0.075 µM; in [6] it was 0.078 µM. Take `NC(=O)N1N=Cc2ccccc2B1O`: the minimum inhibitory concentration (MIC) in data set [7] was found to be 2 µg/mL (≈ 10.6 µM); in the data set on Escherichia coli [8], 16 µg/mL (≈ 84.7 µM). As to `CCCCB1OC(c2ccccc2)C(C)N1C` (stereo not drawn), the MIC with Streptococcus mutans [9] amounted to 500 µM (≈ 116 µg/mL). As for `OB1OCc2ccc(NCc3cc4ccccc4cc3Cl)cc21`, the figures for the IC50 in the data set with MDA-MB-231 and with MIA PaCa-2 were 11.9 µM and 2.7 µM, respectively. Take `Cl.NC[C@H]1OB(O)c2c(OCCCO)cccc21`: in [10], the half-maximal inhibitory concentration (IC50) worked out at 0.31 µM. Moreover, in the data set on Escherichia coli [11], the minimal inhibitory concentration (MIC) worked out at 1 µg/mL. With `COc1ccc(CN(C(=O)Nc2ccccc2)c2ccc3c(c2)B(O)OC3)cc1`, the half-maximal inhibitory concentration (IC50) with MDA-MB-231 is 11.5 µM; in the data set on MIA PaCa-2, 8.3 µM.

On to `CN1C(=O)C2(Cc3ccccc3B(O)O2)c2ccccc21` (stereo not drawn), for which, in data set [12], the logP stood at 3.52. For `C[C@@H]1[C@H](O)[C@@H](C)/C=C/C=C/C=C/C=C/C=C/C=C/C=C/[C@H](O[C@@H]2O[C@H](C)[C@@H](O)[C@H](NC(=O)CCc3ccc4c(c3)OB(O)C4)[C@@H]2O)C[C@@H]2O[C@](O)(C[C@@H](O)C[C@@H](O)[C@H](O)CC[C@@H](O)C[C@@H](O)CC(=O)O[C@H]1C)C[C@H](O)[C@H]2C(=O)O`, the MIC in the data set on Candida albicans, in the data set on Vanrija humicola, with Aspergillus niger [13] and in the data set on Fusarium oxysporum was 0.5 µg/mL (≈ 0.45 µM) in each case. Consider `Clc1ccc(-c2noc3c2COB(c2ccc(Br)cc2)OC3)cc1`, for which the MIC with Pseudomonas aeruginosa came to 25 µg/mL (≈ 61.8 µM). Regarding `O=C(NCCNC(=O)c1ccc2c(c1)B(O)OC2)c1ccc2c(c1)B(O)OC2`, the MIC in data set [14] is 0.78 µM (≈ 0.296 µg/mL). Besides, the MIC99 with A549 is > 5 µM. As to `CC1(C)COB(c2ccccc2)N1`, the Activity in the data set on Streptococcus mutans [15] came to 60%. Take `OB1c2sccc2C=NN1Cc1ccccc1`: in data set [16], the half-maximal cytotoxic concentration (CC50) at 48 h is > 100 µM. As for `Clc1cccc(B2NC(c3ccccc3)=NO2)c1`, the MIC with Aspergillus niger [17] is 0.09 µM (≈ 0.0231 µg/mL).

In the case of `CCS(=O)(=O)N1N=Cc2ccc(Oc3ccc(C(F)(F)F)cc3/C=N/O)cc2B1O`, the IC50 in data set [18] was 0.09 µM; with HepG2, > 100 µM. Also, the results for the fraction unbound in [19] and in data set [20] were 0.015 and 0.12, respectively. On to `Cc1ccc(S(=O)(=O)N2N=Cc3ccccc3B2O)cc1`, for which the results for the MIC in the data set with Klebsiella pneumoniae [21] and in the data set with Escherichia coli [22] were 3.1 µg/mL (≈ 10.3 µM) and 25 µg/mL (≈ 83.3 µM), respectively. In the case of `O=C1Nc2ccccc2B(O)N1c1ccccc1`, the MIC in data set [2] turned out to be 8 µg/mL (≈ 33.6 µM). Consider `CCCCB1NC(C)(C)CO1`, for which the Activity in the data set on Streptococcus mutans [23] amounted to 40%.

For `O=C1C[NH2+][B-](c2ccccc2)(c2ccccc2)O1`, the IC50 in the data set on L5178Y was found to be 22.5 µM.

What is called MIC is the least concentration at which growth counts as inhibited. For orientation: IC50 means the concentration at which inhibition is half-maximal. By Ki is commonly meant the dissociation constant of the complex between target and ligand, obtained from inhibition or displacement. Broadly, the logP is a log measure of how a compound divides between an organic and an aqueous phase. As a reminder, the CC50 is the concentration at which the toxic effect on the cells reaches its halfway point.

Source of the values: ChEMBL document CHEMBL5104111, “Boron-Containing heterocycles as promising pharmacological agents” (Bioorg Med Chem, 2022).
